The values that follow come from patent US20250170252A1, “QUINONE PROTECTED FORMS AND CONJUGATES” (CAMBRIDGE ENTERPRISE LIMITED, priority 2022, published 2025).

Type in all cases: cell-based
For experiment [1], the system named is HL-60 (leukaemia cell line). As to the kind of experiment: Viability assay (CellTiter-Blue), HL-60. The settings on record: Homo sapiens. How it is done: (§1) Assays assessing cytotoxicity of β-lapachone and derivatives were performed by CellTiter-Blue assay (Promega) according to the manufacturer's instructions. Briefly, adherent cancer-cell lines were plated at 20,000 cells/well in 96 well plates or suspension cell lines were plated at a concentration of 2×10^5 cells/mL in 24 well plates. Compound stocks in media were made by dilution of DMSO stocks containing the compound of interest to obtain a final in-plate DMSO concentration of only 0.1%. Incubation was performed for 48 h. Following incubation, media was replaced with media containing CellTiter-Blue (Promega) in 1:10 dilution and the plates were incubated for 1.5-4 h. The fluorescence of the plates was recorded (excitation 555 nm, emission 585 nm, […] Reader, Molecular Devices). Cell viability was calculated by division of the fluorescence intensity of treated wells by that of the calculated average fluorescence intensity of replicate negative control wells containing cells with 0.1% DMSO only. Values and reported error bars represent the mean and standard error of the mean of three triplicate repeats for each concentration tested.

Experiment [2] concerns HL-60. As to the kind of experiment: Toxicity with/without β-glucuronidase, HL-60. The following applies: Homo sapiens, HL-60; read-out: IC50 β-lapachone, 1. How it is done: (§2) Assays assessing cytotoxicity of β-lapachone and derivatives were performed by CellTiter-Blue assay (Promega) according to the manufacturer's instructions. Briefly, adherent cancer-cell lines were plated at 20,000 cells/well in 96 well plates or suspension cell lines were plated at a concentration of 2×10^5 cells/mL in 24 well plates. Compound stocks in media were made by dilution of DMSO stocks containing the compound of interest to obtain a final in-plate DMSO concentration of only 0.1%. Incubation was performed for 48 h. Following incubation, media was replaced with media containing CellTiter-Blue (Promega) in 1:10 dilution and the plates were incubated for 1.5-4 h. The fluorescence of the plates was recorded (excitation 555 nm, emission 585 nm, MiniMax i3x Reader, Molecular Devices).
(§3) Cell viability was calculated by division of the fluorescence intensity of treated wells by that of the calculated average fluorescence intensity of replicate negative control wells containing cells with 0.1% DMSO only. Values and reported error bars represent the mean and standard error of the mean of three triplicate repeats for each concentration tested. IC50 values were calculated using GraphPad Prism 8 software.
(§4) The potential of compound 37a, glucuronide-PHB-BL, as a prodrug was investigated. As discussed above, at physiological pH the compound has a relatively slow-release rate. Toxicity of Gluc-PHB-BL 37a was tested against a range of cell lines with and without added β-glucuronidase. Addition of the enzyme mimics conditions of the solid tumour environment.

For experiment [3], the system named is SkBr-3. As to the kind of experiment: Toxicity with/without β-glucuronidase, SkBr-3. The settings on record: Homo sapiens, SK-BR-3; SkBr-3; read-out: IC50 β-lapachone, 1. How it is done:
as §2, §3, §4

Experiment [4] concerns HL-60 cells. As to the kind of experiment: N-acetyl cysteine cytotoxicity assay. How it is done: For assays involving cytotoxicity of β-lapachone derivatives with and without antioxidant N—-acetyl cysteine, HL-60 cells were plated into 24 well plates at a concentration of 2.5×10^5 cells/mL in 450 μL. To each well was then added 25 μL of drug diluted in PBS to obtain the correct in-plate drug concentration, and 25 μL of PBS or a stock of N-acetyl cysteine at 12 mM in PBS. DMSO was maintained at an in-plate concentration of 0.1%. After 96 h incubation, toxicity was assessed by counting of live cells using the Trypan Blue exclusion method with a Countess II Automated Cell Counter (ThermoFisher Scientific) according to the manufacturer's instructions. Cell viability was determined by division of average live cell number of treated wells by average live cell number for control wells treated with 0.1% DMSO. […] Values recorded are the mean of three repeat wells, with error bars representing the standard error of the mean for each concentration tested.

The subject of experiment [5] is MOLM-13. As to the kind of experiment: Viability assay with small molecule prodrugs, Trypan Blue exclusion, MOLM-13. The following applies: 5 μM, 24 h timepoint. How it is done: For assays assessing cytotoxicity of β-lapachone versus small molecule dipeptide prodrugs, suspension cells were plated into 24 well plates at a density of 2.5×10^5 cells/mL in 240 μL. Serial dilutions of compound were made up in PBS. 60 μL of each stock of either PBS, or compound in PBS was added to the cells to achieve the desired final concentration. After the specified incubation time, toxicity was assessed by counting of live cells using the Trypan Blue exclusion method with a Countess II Automated Cell Counter (ThermoFisher Scientific) according to the manufacturer's instructions. Cell viability was determined by division of average live cell number of treated wells by average live cell number for control wells treated with PBS only. Values recorded are the mean of three repeat wells, with error bars representing the standard error of the mean for each concentration tested. IC50 values were calculated using GraphPad Prism software.

Experiment [6] concerns HCT-116 (colon cancer cell line). As to the kind of experiment: Viability assay (CellTiter-Blue), HCT-116. The following applies: Homo sapiens. How it is done: as §1
Experiment [7] concerns HL-60 cells. As to the kind of experiment: Lysosomal inhibition assay with small molecule prodrugs. The settings on record: HL-60, NH4Cl at 30 mM. How it is done:
Assays to assess the effect of lysosomal activity on prodrugs were performed as follows: HL-60 cells were plated into 96 well plates at a concentration of 2.5×10^5 cells/mL in 180 μL media. Cells were treated with 10 μL of a stock of NH4Cl in PBS (to obtain an in-plate concentration of 3 or 30 mM), 10 μL of a dilution of a DMSO stock of E64d in PBS (to obtain an in-plate concentration of 30 μM), PBS only, or a dilution of DMSO in PBS. Cells were incubated for 30 min. Following this, 10 μL of a stock of test compound made by dilution of a DMSO stock into media was added. DMSO was present in-plate at a maximum of 0.2%. Cells were incubated overnight for 16 h. Following incubation, media was replaced with media containing CellTiter-Blue (Promega) in 1:4 dilution and the plates were incubated for 6 h. The fluorescence of the plates was recorded (excitation 555 nm, emission 585 nm, MiniMax i3x Reader, Molecular Devices). Cell viability was calculated by division of the fluorescence intensity of treated wells by that of the calculated average fluorescence intensity of the relevant negative control wells. Values and reported error bars represent the mean and standard error of the mean of three triplicate repeats for each concentration tested.

For the molecule `CC1(C)CCC2=C(O1)c1ccccc1C(=O)C2=O` [Compound 1, β-lapachone, reference compound], the IC50 in experiment [1] was found to be 1400 nM; in experiment [2], 4330 nM; in experiment [3], 2750 nM; in experiment [4] (Homo sapiens, HL-60, HL-60, without NAC) it was 470 ± 260 nM; in experiment [6], 1100 nM. Also, the “change of IC50 upon NAC addition” value in experiment [4] (HL-60) is recorded as “more than doubled”. Further, the “toxicity to MOLM-13” value in experiment [5] is “complete cell death”. Besides, the “toxicity with NH4Cl” value in experiment [7] is “increase in toxicity”.
